In patent US10703748B2, “Diazanaphthalen-3-yl carboxamides and preparation and use thereof” (Samumed, LLC, priority 2017, dated 2020):

Columns and labels:
[1] = tested on: IL-6; experiment: IL-6 inhibition in LPS-stimulated human peripheral blood mononuclear cells (HTRF); settings: Homo sapiens, PBMC; for EC50: 22 h; for inhibition at 10 µM: read-out: percentage in parentheses after EC50 >10
[2] = tested on: Wnt-responsive Sp5-Luc reporter in SW480 colon carcinoma cells; experiment: Screening assay for Wnt activity (Sp5-Luc reporter gene assay); settings: Homo sapiens; for EC50: SW480; for inhibition at 10 µM: SW480, read-out: percent inhibition at 10 μM
[3] = tested on: SW480 colon carcinoma cells; experiment: Cell viability assay (CellTiter-Glo); settings: Homo sapiens; for EC50: SW480, 96 h; for inhibition at 10 µM: SW480, read-out: percent inhibition at 10 μM
[4] = target: DYRK1A kinase (Homo sapiens, UniProt Q13627); experiment: DYRK1A kinase activity (Ser/Thr 18 peptide Z-lyte FRET assay); assay type: biochemical; settings: recombinant DYRK1A, 30 μM ATP, one hour at room temperature;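 also: kinase activity read as coumarin/fluorescein emission ratio after development step, with unphosphorylated and phosphorylated peptide forms setting 0% and 100% controls, values from dose-response curves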
[5] = tested on: α-smooth muscle actin (aSMA) positive LL29 cells; experiment: Inhibition of the fibrotic process: αSMA staining in TGF-β1 treated LL29 fibroblasts from IPF patients; settings: Homo sapiens, Fibroblast; for EC50: 96 h; for inhibition at 10 µM: read-out: percentage in parentheses after EC50 >10
[6] = tested on: secreted cytokines TNFα, IL-6 and KC-GRO; experiment: Secreted cytokines in Lipopolysaccharide-stimulated BV-2 cells (Table 9 does not say which cytokine); assay type: cell-based, mouse; settings: Mus musculus, BV-2, 5 h; read-out: EC50
[7] = target: GSK3β kinase (Homo sapiens, UniProt P49841); experiment: GSK3β kinase activity (Ser/Thr 09 peptide Z-lyte FRET assay); assay type: biochemical; settings: recombinant kinase, 46 μM ATP, one hour at room temperature; read-out: EC50
Chain of GSK3β kinase (P49841 whole entry): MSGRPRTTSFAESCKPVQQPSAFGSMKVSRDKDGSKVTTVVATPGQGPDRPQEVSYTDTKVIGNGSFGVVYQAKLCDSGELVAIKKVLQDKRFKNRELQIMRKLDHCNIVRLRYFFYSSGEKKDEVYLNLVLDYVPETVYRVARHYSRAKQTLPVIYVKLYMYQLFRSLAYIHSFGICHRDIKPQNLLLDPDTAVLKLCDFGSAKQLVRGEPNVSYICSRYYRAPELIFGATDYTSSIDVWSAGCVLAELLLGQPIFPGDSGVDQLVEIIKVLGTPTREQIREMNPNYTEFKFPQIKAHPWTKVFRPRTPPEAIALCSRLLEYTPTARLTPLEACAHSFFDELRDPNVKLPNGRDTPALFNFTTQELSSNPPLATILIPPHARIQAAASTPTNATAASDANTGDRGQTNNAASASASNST

EC50 [1] [µM] | EC50 [2] [nM] | EC50 [3] [µM] | EC50 [4] [nM] | EC50 [6] [nM] | EC50 [7] [nM] | SMILES | inhibition at 10 µM [1] [%] | EC50 [5] [nM] | inhibition at 10 µM [5] [%] | inhibition at 10 µM [2] [%] | inhibition at 10 µM [3] [%]
> 10 | > 10000 | > 10 | 6 | ≥ 10000 | 1160 | Cn1cc(-c2cc3cc(NC(=O)c4ccc5nccnc5c4)ncc3cn2)cn1 [Compound 3843, N-(6-(1-Methyl-1H-pyrazol-4-yl)-2,7-naphthyridin-3-yl)quinoxaline-6-carboxamide] | 6.8 | 1280 |  | 25 | 14
3.99 | 367 | 0.446 | 10 | 194 | 1750 | CN1CCC(n2cc(C(=O)Nc3cc4cc(-c5cnn(C)c5)ncc4cn3)cn2)CC1 [Compound 3856, N-(6-(1-Methyl-1H-pyrazol-4-yl)-2,7-naphthyridin-3-yl)-1-(1-methylpiperidin-4-yl)-1H-pyrazole-4-carboxamide] |  | > 10000 | 17.5 |  | 
> 10 | 824 | 0.933 | 5 | 343 | 1060 | CC(C)OC(=O)N1CCC(n2cc(C(=O)Nc3cc4cc(-c5cnn(C)c5)ncc4cn3)cn2)CC1 [Compound 3861, Isopropyl 4-(4-((6-(1-methyl-1H-pyrazol-4-yl)-2,7-naphthyridin-3-yl)carbamoyl)-1H-pyrazol-1-yl)piperidine-1-carboxylate] | 5.8 | 597 |  |  | 
> 10 | 2690 | 2.31 | 7 | 300 | 416 | Cc1ncc(C(=O)Nc2cc3cc(-c4cnc(C)n4C)ncc3cn2)s1 [Compound 4074, N-(6-(1,2-Dimethyl-1H-imidazol-5-yl)-2,7-naphthyridin-3-yl)-2-methylthiazole-5-carboxamide] | 14 | 3190 |  |  | 
> 10 | 5600 | > 10 | 8 | ≥ 10000 | 966 | Cn1cncc1-c1cc2cc(NC(=O)c3ccc(F)cc3)ncc2cn1 [Compound 4075, 4-Fluoro-N-(6-(1-methyl-1H-imidazol-5-yl)-2,7-naphthyridin-3-yl) benzamide] | 8.1 | > 10000 | 39.2 |  | 35.4
> 10 | 200 | 2.79 | 7 | 2400 | 2280 | Cn1cncc1-c1cc2cc(NC(=O)c3cccc(CN4CCCC4)c3)ncc2cn1 [Compound 4077, N-(6-(1-Methyl-1H-imidazol-5-yl)-2,7-naphthyridin-3-yl)-3-(pyrrolidin-1-ylmethyl)benzamide] | 3.6 | 1020 |  |  | 

Further lines, the compound ahead of its results:

SMILES | EC50 [1] [µM] | EC50 [2] [nM] | EC50 [3] [µM] | EC50 [4] [nM] | EC50 [6] [nM] | EC50 [7] [nM] | inhibition at 10 µM [1] [%] | EC50 [5] [nM] | inhibition at 10 µM [5] [%] | inhibition at 10 µM [2] [%] | inhibition at 10 µM [3] [%]
Nc1cncc(-c2cnc3cnc(NC(=O)c4ccc(OC5CCNCC5)cc4)cc3c2)c1 [Compound 3524, N-(3-(5-Aminopyridin-3-yl)-1,7-naphthyridin-6-yl)-4-(piperidin-4-yloxy) benzamide] | > 10 | 3550 | 3.71 | 11 | 582 | > 10000 | 5.6 | > 10000 | 50 |  | 
CN1CC=C(c2cc(C(=O)Nc3cc4cc(-c5cncc(NC(C)(C)C)n5)cnc4cn3)ccn2)CC1 [Compound 3587, N-(3-(6-(tert-Butylamino)pyrazin-2-yl)-1,7-naphthyridin-6-yl)-1′-methyl-1′,2′,3′,6′-tetrahydro-[2,4′-bipyridine]-4-carboxamide] | 7.67 | 357 | 0.821 | 1 | 11 | > 10000 |  | 1440 |  |  | 
O=C(Nc1cc2cc(-c3cncc(NC4CCNCC4)n3)cnc2cn1)C1CCOCC1 [Compound 3597, N-(3-(6-(Piperidin-4-ylamino)pyrazin-2-yl)-1,7-naphthyridin-6-yl) tetrahydro-2H-pyran-4-carboxamide] | > 10 | > 10000 | > 10 | 6 | ≥ 10000 | > 10000 | 0 | > 10000 | 7.7 | 7.6 | 8.1
O=C(Nc1cc2cc(-c3cncc(N[C@H]4CCNC[C@@H]4F)n3)cnc2cn1)C1CC1 [Compound 3599, N-(3-(6-(((3S,4S)-3-Fluoropiperidin-4-yl)amino)pyrazin-2-yl)-1,7-naphthyridin-6-yl)cyclopropanecarboxamide] | > 10 | > 10000 | 8.85 | 8 | 832 | 780 | 40.1 | 3010 |  | 41.3 | 
CN1CCC(n2cc(C(=O)Nc3cc4cc(-c5cncc6[nH]ccc56)cnc4cn3)cn2)CC1 [Compound 3616, N-(3-(1H-Pyrrolo[2,3-c]pyridin-4-yl)-1,7-naphthyridin-6-yl)-1-(1-methylpiperidin-4-yl)-1H-pyrazole-4-carboxamide] | 2.37 | 485 | 0.504 | 29 | 1200 | > 10000 |  | 3160 |  |  | 
CC(C)n1cc(C(=O)Nc2cc3cc(-c4cncc(NC5CCN(C)CC5)n4)cnc3cn2)cn1 [Compound 3627, 1-Isopropyl-N-(3-(6-((1-methylpiperidin-4-yl)amino)pyrazin-2-yl)-1,7-naphthyridin-6-yl)-1H-pyrazole-4-carboxamide] | > 10 | 1680 | 3.42 | 7 | 708 | > 10000 | 10.6 | > 10000 | 33.4 |  | 
CN1CCN(c2cc(C(=O)Nc3cc4cc(-c5cnn(C)c5)ncc4cn3)ccn2)CC1 [Compound 3774, N-(6-(1-Methyl-1H-pyrazol-4-yl)-2,7-naphthyridin-3-yl)-2-(4-methylpiperazin-1-yl)isonicotinamide] | > 10 | > 10000 | 9.64 | 10 | 972 | 397 | 10.8 | 5860 |  | 54.7 | 
CN1CCN(c2ccc(C(=O)Nc3cc4cc(-c5cnn(C)c5)ncc4cn3)cn2)CC1 [Compound 3778, N-(6-(1-Methyl-1H-pyrazol-4-yl)-2,7-naphthyridin-3-yl)-6-(4-methylpiperazin-1-yl)nicotinamide] | > 10 | 3970 | 7.72 | 4 | 720 | 187 | 4.2 | 694 |  |  | 
CN1CCC(Nc2cncc(C(=O)Nc3cc4cc(-c5cnn(C)c5)ncc4cn3)c2)CC1 [Compound 3783, N-(6-(1-Methyl-1H-pyrazol-4-yl)-2,7-naphthyridin-3-yl)-5-((1-methylpiperidin-4-yl)amino)nicotinamide] | > 10 | 1080 | 1.97 | 4 | 5300 | 2340 | 1.7 | 2100 |  |  | 
CN(C)CCNc1cc(C(=O)Nc2cc3cc(-c4cnn(C)c4)ncc3cn2)ccn1 [Compound 3791, 2-((2-(Dimethylamino)ethyl)amino)-N-(6-(1-methyl-1H-pyrazol-4-yl)-2,7-naphthyridin-3-yl)isonicotinamide] | > 10 | 482 | 3.42 | 10 | 3900 | 1350 | 0 | 4950 |  |  | 
CN(C)Cc1ccc(C(=O)Nc2cc3cc(-c4cnn(C)c4)ncc3cn2)cc1 [Compound 3797, 4-((Dimethylamino)methyl)-N-(6-(1-methyl-1H-pyrazol-4-yl)-2,7-naphthyridin-3-yl)benzamide] | > 10 | 427 | 7.02 | 8 | 54 | 409 | 7 | 2700 |  |  | 
CN1CCc2ccc(C(=O)Nc3cc4cc(-c5cnn(C)c5)ncc4cn3)cc2C1 [Compound 3829, 2-Methyl-N-(6-(1-methyl-1H-pyrazol-4-yl)-2,7-naphthyridin-3-yl)-1,2,3,4-tetrahydroisoquinoline-7-carboxamide] | > 10 | 994 | 9.32 | 10 | 533 | 763 | 5.3 | 759 |  |  | 
Cn1cc(-c2cc3cc(NC(=O)c4ccc5ccoc5c4)ncc3cn2)cn1 [Compound 3836, N-(6-(1-Methyl-1H-pyrazol-4-yl)-2,7-naphthyridin-3-yl)benzofuran-6-carboxamide] | > 10 | 220 | > 10 | 5 | 1000 | 1470 | 1.4 | > 10000 | 10 |  | 33.9
